The test system of one data set is A375 cells. Description: TEM electron microscopy of A375 cells. It is filed as cell-based, human. Here is the method: A375 cells were seeded at 1×10^5 cells per well in 6-well plates and allowed to grow for three days to optimize membrane structures in the culture, and the media was changed on the second day. Cells were washed twice in serum-free RPMI before being treated with LTX-315 dissolved in serum-free RPMI at 5, 10 and 25 μg/ml, with serum-free RPMI as a negative control. Cells were then washed with PBS twice before fixation for 24 hours in 4° C. with 4% formaldehyde and 1% gluteralaldehyde in a Hepes buffer at pH 7.8. Dehydration and post-fixation protocols included incubation in a 5% buffered tannic acid and incubation in a 1% osmium-reduced ferrocyanide. Ultrathin sections were prepared, and uranyl acetate (5%) and Reynolds's lead citrate were used for staining and contrasting. Samples were examined on a JEOL JEM-1010 transmission electron microscope, and images were taken with an Olympus Morada side-mounted TEM CCD camera (Olympus soft imaging solutions, GmbH, Germany).

The next data set relates to MCA205 sarcoma. To be noted: mouse, in vivo. As to the method:
Mice were subcutaneously injected into the right flank with 1×10^6 MCA205 cells. Tumour cell lines were inoculated into C57BL/6 mice. Tumour surfaces (longest dimension×perpendicular dimension) were routinely monitored by caliper. When tumours reached a size of 20-25 mm^2 (day 0), mice were administered intratumourally with three consecutive daily injections of 300 μg LTX-315. In T-cell depletion experiments (FIG. 24), anti-CD4 and anti-CD8 monoclonal antibodies (mAbs) (GK1.5 and 53-6.72, respectively; 200 μg per mouse) or their isotype controls (LTF-2 and 2A3, respectively) were injected intraperitoneally 3 and 4 days before the first LTX-315 injection and continued every other 7 days. All mAbs for in vivo use were obtained from BioXcell (West Lebanon, NH, USA), using the recommended isotype control mAbs.
Tumours and spleens were harvested 7 days after the first injection of LTX-315. Excised tumours were cut into small pieces and digested in RPMI-1640 medium containing Liberase at 25 μg/ml (Roche, Boulogne-Billancourt, France) and DNase1 at 150 UI/ml (Roche) for 30 min at 37° C. The mixture was subsequently passaged through a 100 μm cell strainer. […] All cells were analysed on a CyAn ADP (Beckman Coulter, Marseille, France) flow cytometer with FlowJo (Tree Star, Ashland, OR) software.

Data set [1] concerns tumour tissue sections from patients. Description: Clinical histology, CD3/CD8 immunostaining of patient tumours. It is filed as in vivo, human. Here is the method: Formalin-fixed and paraffin-embedded tumour tissue sections from patients were deparaffinized in xylene and graded alcohols, hydrated and washed in PBS. After antigen retrieval in sodium citrate buffer (pH 6) in a microwave oven, the endogenous peroxidase was blocked by 0.3% H2O2 for 15 min. Sections were incubated overnight at 4° C. with primary antibody; rabbit polyclonal anti-CD3 (clone A0452 Dako) or mouse monoclonal anti-CD8 (clone OX8, ab33786, Abcam). As a secondary antibody, the anti-rabbit-horseradish peroxidase (HRP) SuperPicTure Polymer detection kit (Invitrogen) or Envision system HRP-anti-mouse (Dako) were used. A matched isotype control was used as a control for nonspecific background staining

The subject of the next data set is rat sarcoma model. The data set can be described thus: Rat sarcoma model with three lesions, tumour growth by live imaging. In kind it is in vivo. To be noted: LTX-315 injected into one subcutaneous lesion.

The values below come from patent publication US20250002854A1, “METHODS OF GENERATING POPULATIONS OF TUMOUR-INFILTRATING T CELLS” (LYTIX BIOPHARMA AS, priority 2016, published 2025).

Square brackets hold non-standard residues; d marks the D form. Ends that are not written are not given here. Dip = N[C@H](C(=O)O)C(c1ccccc1)c1ccccc1

Take “K-K-W-W-K-K-W-Dip-K-NH2 (KKWWKKW[Dip]K-NH2) [LTX-315]”: in the data set on A375 cells (3.5 μM), the cells with vacuolization result was “approximately 20%”. Besides, in the data set with A375 cells (3.5 μM, 60 minutes), the “number of necrotic cells” value is listed as “less than 5%” and the ultrastructural changes result is on record as “showed vacuolization, as well as some altering of the mitochondrial morphology”. In the data set on A375 cells (17 μM, 60 min), the cells displaying vacuolization is recorded as 4%; the “cells with necrotic morphology and loss of plasma membrane integrity” value is listed as “approximately 40%”. For the same substance, in the data set on A375 cells (TEM, A375 cells), the “mode of cell killing” value is on record as “kills the tumor cells with a lytic mode of action”. In the data set with MCA205 sarcoma, the “cytotoxic CD4+ TILs in tumour beds (IFNγ+, IL-17+, IFNγ+ IL-17+)” value was “markedly increased” and the “cytotoxic CD8+ TILs in tumour beds (IFNγ+, TNFα+, IFNγ+ TNFα+)” value is “markedly increased”. The “infiltration of CD3+ and CD8+ cells” value in data set [1] (breast carcinoma patient) was “infiltration of CD3^+ positive cells”. The “infiltration of CD3+ and CD8+ cells” value in data set [1] (desmoid tumour patient) was “infiltration of CD3^+ positive cells”. In data set [1] (malignant melanoma patient), the “infiltration of CD8+ cells” value is given as “infiltration of CD8^+ positive cells”. In addition, the “infiltration of CD3+ and CD8+ cells” value in data set [1] (metastatic melanoma patient) is “infiltration of CD3^+ positive cells”. In data set [1] (myo-epithelioma patient), the “infiltration of CD3+ and CD8+ cells” value was “infiltration of CD3^+ positive cells”. Also, in the data set on rat sarcoma model, the “effect on lesions (intraperitoneal and two subcutaneous tumours)” value is recorded as “eradicated all three lesions”.
